System: OVCAR-4 (ovarian cancer)
Assay: Growth inhibition in human cancer cell line panel, OVCAR-4
Format: cell-based
Conditions: 48 hr, SRB
Description: Compound IX-8 was evaluated growth inhibition activities against a panel of 39 human cancer cell lines including Human breast cancer MDA-MB-231 and the following human cancer cell lines were generously distributed by the National Cancer Institute (Frederick, Md.): lung cancer, NCI-H23, NCI-H226, NCI-H522, NCI-H460, A-549, DMS273 and DMS114; colon cancer, HGC-2998, KM-12, HT-29, HCT-15, and HCT-116; ovarian cancer, OVCAR-3, OVCAR-4, OVCAR-5, OVCAR-8, and SKOV-3; breast cancer, MCF-7; renal cancer, RXF-631L and ACHN; melanoma, LOX-IMVI; brain tumor, U251, SF-295, SF-539, SF-268, SNB-75, and SNB-78, and prostate cancer, DU-145 and PC-3. […]
The details of measuring cell growth inhibition are described elsewhere [Monks, A., Scudiero, D., Skehan, P., Shoemaker, R., Paull, K., Vistica, D., Hose, C., Langley, J., Cronise, P., Vaigro-Wolff, A., Gray-Goodrich, M., Campbell, H., Mayo, J., Boyd, M. Feasibility of a high-flux anticancer drug screen using a diverse panel of cultured human tumor cell lines. […] Then, the cell growth was determined according to the Sulforhodamine B assay, described by Skehan et al [Skehan, P., Storeng, R., Scudiero, D., Monks, A., McMahon, J., Vistica, D., Warren, J. T., Bokesch, H., Kenney, S., Boyd, M. R. New calorimetric cytotoxicity assay for anticancer-drug screening. […]

COc1ccc2[nH]c(-c3cccc(F)c3)c(C(=O)O)c(=O)c2c1 [IX-8, 3′-Fluoro-6-methoxy-2-phenyl-4-quinolone-3-carboxylic acid]
GI50: 174 nM
